Results from paper PMC6095594, “Pre-clinical evaluation of quinoxaline-derived chalcones in tuberculosis” (PLoS ONE, 2018).
In brackets after ≈: the same amount, converted by molar mass. Read-outs that look alike come from different tables or passages of the source.

Key:
[1] = test system: M. tuberculosis H37Rv strain; assay: microbe, parasite or virus in culture; type: cell-based
[2] = test system: M. tuberculosis pan-susceptible clinical isolate CDCT-28; assay: microbe, parasite or virus in culture; type: cell-based; conditions: Mycobacterium tuberculosis
[3] = test system: S. typhimurium TA1535; assay: Salmonella/microsome mutagenicity test
Procedure: (§1) Salmonella typhimurium strains TA98, TA97a, TA100, TA1535, and TA102 were provided by MOLTOX® (Molecular Toxicology Inc. USA). Mutagenicity was assayed according to the pre-incubation procedure following the recommendation described in Mortelmans and Zieger (2000). […] Briefly, 100 μL of test bacterial cultures (1–2 x 10^9 cells/mL) were incubated at 37 °C with different concentrations of N9 (10–400 μg/plate) in the presence or absence of S9 mix, for 20 min, without shaking. […] Plates were incubated in the dark at 37 °C for 48 h before counting the revertant colonies. Assays were repeated twice and the plating for each concentration was conducted in triplicate. Data were evaluated by one-way analysis of variance (ANOVA), followed by Dunnett's post-test, using GraphPad Prism 5.0 (GraphPad, San Diego, CA, USA).

[4] = test system: S. typhimurium TA100; assay: Salmonella/microsome mutagenicity test
Procedure: as §1

[5] = test system: S. typhimurium TA102; assay: Salmonella/microsome mutagenicity test; conditions: TA102, +S9, positive control 5 μg/plate
Procedure: (§2) Salmonella typhimurium strains TA98, TA97a, TA100, TA1535, and TA102 were provided by MOLTOX® (Molecular Toxicology Inc. USA). Mutagenicity was assayed according to the pre-incubation procedure following the recommendation described in Mortelmans and Zieger (2000). […] Briefly, 100 μL of test bacterial cultures (1–2 x 10^9 cells/mL) were incubated at 37 °C with different concentrations of N9 (10–400 μg/plate) in the presence or absence of S9 mix, for 20 min, without shaking. […] 2-aminoanthracene (2-AA, 5 μg/plate) was used as positive control for all strains in the presence of metabolic activation (with S9 mix). […] Plates were incubated in the dark at 37 °C for 48 h before counting the revertant colonies. Assays were repeated twice and the plating for each concentration was conducted in triplicate. Data were evaluated by one-way analysis of variance (ANOVA), followed by Dunnett's post-test, using GraphPad Prism 5.0 (GraphPad, San Diego, CA, USA).

[6] = test system: S. typhimurium TA97a; assay: Salmonella/microsome mutagenicity test; conditions: +S9, positive control 5 μg/plate
Procedure: as §2

[7] = test system: S. typhimurium TA98; assay: Salmonella/microsome mutagenicity test; conditions: TA98, +S9, positive control 5 μg/plate
Procedure: as §2

[8] = test system: M. tuberculosis pan-susceptible clinical isolate CDCT-28; conditions: cited from earlier work
[9] = test system: M. tuberculosis H37Rv strain; parameters: method as in Abbadi, 2018; conditions: ref Abbadi, 2018; cited from earlier work
[10] = test system: M. tuberculosis H37Rv; assay: Checkerboard assay, two-drug combination with REMA readout; type: cell-based, Mycobacterium tuberculosis; conditions: for MIC: Mycobacterium tuberculosis, read-out: MIC Alone, checkerboard, drug alone, three independent experiments
[11] = test system: M. tuberculosis pNIP::control; assay: microbe, parasite or virus in culture; type: cell-based; conditions: Mycobacterium tuberculosis; pNIP::control (empty vector)
[12] = test system: M. tuberculosis pNIP::KatG(WT); assay: microbe, parasite or virus in culture; type: cell-based; conditions: Mycobacterium tuberculosis
[13] = Mycobacterium tuberculosis, H37RV, read-out: MIC
[14] = TA1535, +S9, positive control 5 μg/plate
[15] = TA100, +S9, positive control 5 μg/plate
[16] = TA1535, -S9, positive control 1 μg/plate
[17] = TA100, -S9, positive control 1 μg/plate

Compound: COc1ccc(C(=O)/C=C/c2ccc3nccnc3c2)c(OC)c1OC [N36]
- MIC [1, 13]: 25 µg/mL (≈ 71.4 µM)

Compound: COc1cc(C(=O)/C=C/c2ccc3nccnc3c2)cc(OC)c1OC [N15]
- MIC [2]: 3.13 µg/mL (≈ 8.93 µM)
- MIC ([1]; H37Rv): 6.25 µg/mL (≈ 17.8 µM)
- MIC [1, 13]: 3.13 to 12.5 µg/mL (≈ 8.93 to 35.7 µM)

Compound: O=C(/C=C/c1ccc2nccnc2c1)c1ccc([N+](=O)[O-])cc1 [N7]
- MIC [1, 13]: > 25 µg/mL

Compound: N#Cc1ccc(C(=O)/C=C/c2ccc3nccnc3c2)cc1 [N33]
- MIC [1, 13]: > 25 µg/mL

Compound: N#Cc1cccc(C(=O)/C=C/c2ccc3nccnc3c2)c1 [N34]
- MIC [1, 13]: > 25 µg/mL

Compound: COc1cc(C(=O)/C=C/c2ccc3nccnc3c2)cc(OC)c1O [N20]
- MIC [1, 13]: > 25 µg/mL

Compound: O=C(/C=C/c1ccc2nccnc2c1)c1ccc2c(c1)OCO2 [N3]
- MIC [1, 13]: > 25 µg/mL

Compound: Nc1ccc2cc3ccccc3cc2c1 [2-AA, 2-aminoanthracene, reference compound]
- MI: mutagenic index [3, 14]: 6.96
- Number of revertants/plate [3, 14]: 58.0±12.7 Rev/plate
- MI: mutagenic index [4, 15]: 11.03
- Number of revertants/plate [4, 15]: 1279.0±50.2 Rev/plate
- MI: mutagenic index [5]: 3.62
- Number of revertants/plate [5]: 1354.0±21.1 Rev/plate
- MI: mutagenic index [6]: 6.44
- Number of revertants/plate [6]: 742.0±59.4 Rev/plate
- MI: mutagenic index [7]: 39.65
- Number of revertants/plate [7]: 1586.0±161.2 Rev/plate

Compound: COc1cc(OC)c(C(=O)/C=C/c2ccc3nccnc3c2)cc1OC [N17]
- MIC [1, 13]: > 25 µg/mL

Compound: CO[C@H]1/C=C/O[C@@]2(C)Oc3c(C)c(O)c4c(O)c(c(/C=N/N5CCN(C)CC5)c(O)c4c3C2=O)NC(=O)/C(C)=C\C=C\[C@H](C)[C@H](O)[C@@H](C)[C@@H](O)[C@@H](C)[C@H](OC(C)=O)[C@@H]1C [RIF, Rifampicin]
- MIC [8]: <0.2 µg/mL
- MIC [9]: <0.2 µg/mL

Compound: O=C(/C=C/c1ccc2nccnc2c1)c1ccc(Br)cc1 [N4]
- MIC [1, 13]: > 25 µg/mL

Compound: COc1ccccc1C(=O)/C=C/c1ccc2nccnc2c1 [N19]
- MIC [1, 13]: > 25 µg/mL

Compound: COc1c(N2C[C@@H]3CCCN[C@@H]3C2)c(F)cc2c(=O)c(C(=O)O)cn(C3CC3)c12 [MFX, moxifloxacin, reference compound]
- MIC ([10]; H37RV): 0.15 µg/mL
- Improvement of MIC of MFX in the presence of N9 ([10]; all three experiments): 4 fold
- MIC [9]: <0.2 µg/mL

Compound: COc1cccc(C(=O)/C=C/c2ccc3nccnc3c2)c1 [N23]
- MIC [2]: 2.5 µg/mL (≈ 8.61 µM)
- MIC ([1]; H37Rv): 5 µg/mL (≈ 17.2 µM)
- MIC [1, 13]: 3.13 to 12.5 µg/mL (≈ 10.8 to 43.1 µM)

Compound: O=C(/C=C/c1ccc2nccnc2c1)c1ccccc1O [N6]
- MIC [1, 13]: > 5 µg/mL

Compound: [N-]=[N+]=[N-].[Na+] [NaN3, sodium azide, reference compound]
- MI: mutagenic index [3, 16]: 100.0
- Number of revertants/plate [3, 16]: 1133.0±179.6 Rev/plate
- MI: mutagenic index [4, 17]: 6.03
- Number of revertants/plate [4, 17]: 695.5±40.3 Rev/plate

Compound: NNC(=O)c1ccncc1 [INH, isoniazid, reference compound]
- MIC [11]: < 0.2 µg/mL
- MIC [12]: < 0.2 µg/mL
- MIC [2]: 0.39 µg/mL (≈ 2.84 µM)
- MIC [1, 13]: 0.39 µg/mL (≈ 2.84 µM)
- MIC Alone ([10]; H37RV): 0.16 µg/mL
- MIC ([10]; H37RV): 0.31 µg/mL
